The target of one data set is T1, DAT (Homo sapiens, UniProt Q01959).
T1 construct: cDNAs containing the complete coding regions of each transporter were amplified by PCR from human brain libraries; expressed in transfected cells; host or cells: HEK293E
In words: biochemical. In kind it is binding. Conditions: for inhibition at 0.1 µM: read-out: % inhibition at 100 nM concentration of test compound, DAT.

For another data set, the target named is SERT (Homo sapiens, UniProt P31645). In words: biochemical. Conditions: for inhibition at 0.1 µM: read-out: % inhibition at 100 nM concentration of test compound, SERT.
SERT, sequence (P31645 whole entry): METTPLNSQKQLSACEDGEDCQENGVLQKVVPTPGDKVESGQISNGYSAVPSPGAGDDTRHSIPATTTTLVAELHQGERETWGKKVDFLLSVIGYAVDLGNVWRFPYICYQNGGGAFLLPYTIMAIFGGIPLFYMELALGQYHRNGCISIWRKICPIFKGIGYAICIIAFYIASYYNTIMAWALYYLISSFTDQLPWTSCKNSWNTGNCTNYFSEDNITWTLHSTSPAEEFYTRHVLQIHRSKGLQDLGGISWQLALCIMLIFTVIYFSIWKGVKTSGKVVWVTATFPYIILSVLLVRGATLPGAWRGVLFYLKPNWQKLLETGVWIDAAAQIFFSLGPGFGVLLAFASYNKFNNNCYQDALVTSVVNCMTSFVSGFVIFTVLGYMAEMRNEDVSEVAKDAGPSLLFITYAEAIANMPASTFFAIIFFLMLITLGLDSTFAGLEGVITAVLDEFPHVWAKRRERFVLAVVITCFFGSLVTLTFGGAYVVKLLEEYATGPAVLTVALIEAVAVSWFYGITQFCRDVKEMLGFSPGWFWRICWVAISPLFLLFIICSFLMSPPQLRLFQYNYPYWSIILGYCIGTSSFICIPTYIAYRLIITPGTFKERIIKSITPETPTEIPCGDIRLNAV

Where a name gives a salt, the structure may show the parent alone.

T1 sequence (Q01959 whole entry): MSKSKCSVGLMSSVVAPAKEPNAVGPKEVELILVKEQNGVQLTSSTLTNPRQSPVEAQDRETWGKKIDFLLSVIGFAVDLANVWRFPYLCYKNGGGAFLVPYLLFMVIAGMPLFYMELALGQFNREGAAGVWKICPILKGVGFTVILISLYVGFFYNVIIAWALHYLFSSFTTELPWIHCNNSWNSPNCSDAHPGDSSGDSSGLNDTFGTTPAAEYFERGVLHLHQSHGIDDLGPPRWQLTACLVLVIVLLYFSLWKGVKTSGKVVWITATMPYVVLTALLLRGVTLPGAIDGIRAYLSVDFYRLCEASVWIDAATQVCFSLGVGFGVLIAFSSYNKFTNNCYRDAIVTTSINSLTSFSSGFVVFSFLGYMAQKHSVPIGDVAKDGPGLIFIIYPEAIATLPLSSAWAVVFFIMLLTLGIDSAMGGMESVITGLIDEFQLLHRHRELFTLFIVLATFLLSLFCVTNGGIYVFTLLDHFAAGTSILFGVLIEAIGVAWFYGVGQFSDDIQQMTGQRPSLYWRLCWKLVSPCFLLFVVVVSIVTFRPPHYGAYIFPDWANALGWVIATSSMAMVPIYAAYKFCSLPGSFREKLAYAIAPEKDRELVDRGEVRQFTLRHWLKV

For the molecule `CN1Cc2cc(C#N)ccc2C(c2cc3ccccc3s2)C1` (stereo not drawn) (as salt: maleate) [Example 79 (+)], the melting point – broadly, the temperature, or range, at which the solid turns liquid – lay within 91 to 94 °C.
On the same count and under the same terms, next, `CN1Cc2ccccc2C(c2ccc3[nH]ncc3c2)C1.O=C(O)/C=C/C(=O)O` (centres unmarked): 83 to 88 °C; `CN1Cc2cc(-c3ncccn3)ccc2C(c2ccc3ccccc3c2)C1.O=C(O)/C=C\C(=O)O` (stereo not drawn) [Example 140 (−)-enantiomer]: 86 to 88 °C; `COc1c(C2CN(C)Cc3ccccc32)ccc2ccsc12` (centres unmarked) (as salt: fumarate): 98 to 99 °C.
In turn, `CN(C)Cc1ccc2c(c1)CN(C)CC2c1ccc2sccc2c1` (racemic) (as salt: fumarate) registered a melting point of 123 to 125 °C.
Take `CN1Cc2cc(-c3cnccn3)ccc2C(c2cc3ccccc3s2)C1` (racemic) [Example 71, (±)-4-(benzo[b]thiophen-2-yl)-2-methyl-7-(pyrazin-2-yl)-1,2,3,4-tetrahydroisoquinoline]: the inhibition at 0.1 µM on DAT came out at 33%; at SERT it was 91%.
`COc1c(C2CN(C)Cc3ccccc32)ccc2sccc12` (stereo not drawn) (as salt: fumarate) [Example 82 (−)] returned a melting point of 94 to 96 °C.
In the case of `CCN1Cc2ccccc2C(c2ccc3sccc3c2OC)C1` (centres unmarked) (as salt: fumarate), the melting point lay within 91 to 92 °C.
`CN1Cc2cc(-c3cncnc3)ccc2C(c2cc3ccccc3s2)C1` (racemic) (as salt: maleate) [Example 73, (±)-4-(benzo[b]thiophen-2-yl)-2-methyl-7-(pyrimidin-5-yl)-1,2,3,4-tetrahydroisoquinoline] had a melting point of 103 to 107 °C.
In the case of `COc1c(C2CN(C)Cc3ccccc32)ccc2sccc12` (stereo not drawn) (as salt: fumarate) [82 (+)], the melting point was in the range of 97 to 99 °C.
The same measure, in the same setting: the result for `CN1Cc2ccccc2C(c2ccc3sccc3c2O)C1` (stereo not drawn) (as salt: fumarate) [Example 88 (+)] reads 213 to 215 °C.
Consider `CN1Cc2cc(-c3cncnc3)ccc2C(c2cc3ccccc3s2)C1` (racemic) [Example 73, (±)-4-(benzo[b]thiophen-2-yl)-2-methyl-7-(pyrimidin-5-yl)-1,2,3,4-tetrahydroisoquinoline], for which the inhibition at 0.1 µM at DAT was 39%; at SERT it was 93%.
Consider `Cc1cccc2c1CN(C)CC2c1ccc2ccccc2c1` (centres unmarked) (as salt: hydrochloride), for which the melting point lay within 210 to 214 °C.
Still for that read-out and setting: the result for `CN1Cc2cc(-c3cccnn3)ccc2C(c2cccc3sccc23)C1` (racemic) (as salt: maleate) reads 94 to 97 °C.
In the case of `CCN1Cc2ccccc2C(c2ccc3sccc3c2O)C1` (stereo not drawn) (as salt: fumarate) [Example 89 (−)], the melting point lay within 155 to 157 °C.
Take `CN1Cc2c(cccc2N2CCOCC2)C(c2ccc3sccc3c2)C1.O=C(O)/C=C/C(=O)O` (racemic): the melting point lay in the range of 148 to 153 °C.
For `CN1Cc2ccccc2C(c2nc3ccccc3s2)C1.O=C(O)/C=C\C(=O)O` (racemic), the melting point was 165 to 170 °C.
The same measure, in the same setting: the result for `CN1Cc2ccccc2C(c2ccc3[nH]ncc3c2)C1` (centres unmarked) reads 167 to 169 °C.
Turning to `CN1Cc2ccccc2C(c2cc(Cl)c3[nH]ncc3c2)C1` (single isomer, unassigned; (-)) [Example 125, (−)-4-(7-chloro-1H-indazol-5-yl)-2-methyl-1,2,3,4-tetrahydoisoquinoline, maleate salt], the Ki (as a rule, the equilibrium dissociation constant of an inhibitor or competing ligand from its target) stood at 11.5 nM at DAT and 21.3 nM at SERT.
For `CN1Cc2cc(N3CCCC3)ccc2C(c2cc3ccccc3s2)C1` (racemic) (as salt: maleate), the melting point lay within 105 to 108 °C.
`CN1Cc2cc(C#N)ccc2C(c2cc3ccccc3s2)C1` (stereo not drawn) (as salt: maleate) [Example 79 (−)] showed a melting point of 80 to 84 °C.
On the same count and under the same terms, the result for `CN1Cc2cc(N3CCOCC3)ccc2C(c2cc3ccccc3s2)C1` (centres unmarked) (as salt: maleate) reads 142 to 145 °C.
`CN1Cc2ccccc2C(c2ccc3c(ccn3Cc3ccccc3)c2)C1` (racemic) (as salt: maleate) showed a melting point of 81 to 85 °C.
Molecule `CC1c2ccccc2C(c2ccc3sccc3c2)CN1C` (racemic) (as salt: fumarate) had a melting point of 179 to 181 °C.
With `Cc1noc(C)c1-c1ccc2c(c1)CN(C)CC2c1ccc2ccccc2c1` (racemic) [Example 142, (±)-7-(3,5-dimethyl-isoxazol-4-yl)-2-methyl-4-napthalen-2-yl-1,2,3,4-tetrahydroisoquinoline, maleate salt], the Ki turned out to be 104 nM on DAT and 5.2 nM on SERT.
Take `CN1Cc2cc(-c3cnccn3)ccc2C(c2cc3ccccc3s2)C1` (racemic) (as salt: maleate) [Example 71, (±)-4-(benzo[b]thiophen-2-yl)-2-methyl-7-(pyrazin-2-yl)-1,2,3,4-tetrahydroisoquinoline]: the melting point lay within 102 to 105 °C.
As to `Cc1csc(C2CN(C)Cc3ccccc32)c1` (racemic) [4-methyl-thiophen-2-yl, reference compound], the Ki on DAT stood at 2250 nM; at SERT, 3170 nM.
For the molecule `CN1Cc2ccccc2C(C2=Cc3ccccc3C2)C1` (centres unmarked) (as salt: maleate), the melting point fell in the range of 184 to 187 °C.
With `Cc1noc(C)c1C1CN(C)Cc2ccccc21` (racemic) [4-(3,5-dimethyl-isoxazol-4-yl, reference compound], the Ki on DAT was 128000 nM; on SERT, 1400 nM.
As for `COc1cccc2c1CN(C)CC2c1ccc2sccc2c1` (racemic) (as salt: fumarate), the melting point is 197 to 199 °C.
On the same count and under the same terms, next, `Cc1noc(C)c1-c1ccc2c(c1)CN(C)CC2c1cc2ccccc2s1` (racemic) (as salt: maleate): 92 to 95 °C; `CN1Cc2cc(-c3ccc(N(C)C)nn3)ccc2C(c2ccc3sccc3c2)C1` (centres unmarked) (as salt: fumarate): 116 to 119 °C; `CN1Cc2ccccc2C(c2cccc3ccsc23)C1` (racemic) (as salt: salt): 228 to 230 °C.
The same measure, in the same setting: the result for `CN1Cc2ccccc2C(c2ccc3cn[nH]c3c2)C1.O=C(O)/C=C/C(=O)O` (centres unmarked) reads 110 to 117 °C; that for `CN1Cc2cc(-c3ncccn3)ccc2C(c2cc3ccccc3s2)C1` (racemic) (as salt: maleate), 103 to 106 °C.
At SERT, `Cc1cccc2c1C(c1ccc3ccccc3c1)CN(C)C2` (centres unmarked) [Example 56, 2,5-dimethyl-4-(naphthalen-2-yl)-1,2,3,4-tetrahydroisoquinoline] had a Ki of 3.4 nM.
For the molecule `CN1Cc2ccccc2C(c2cc(Cl)c3[nH]ncc3c2)C1` (single isomer, unassigned; (-)) (as salt: maleate) [Example 125, (−)-4-(7-chloro-1H-indazol-5-yl)-2-methyl-1,2,3,4-tetrahydoisoquinoline, maleate salt], the melting point lay in the range of 104 to 110 °C.
The same measure, in the same setting: the result for `CN1Cc2ccccc2C(c2ccc3c(Cl)c[nH]c3c2)C1` (racemic) (as salt: maleate) reads 94 to 98 °C; that for `CN1Cc2ccccc2C(c2nc3ccccc3o2)C1.O=C(O)/C=C\C(=O)O` (racemic), 135 to 140 °C.
Same read-out and setting: next, `CN1Cc2cc(N3CCOCC3)ccc2C(c2cccc3sccc23)C1` (racemic) (as salt: maleate): 103 to 107 °C; `CCN1Cc2ccccc2C(c2ccc3sccc3c2O)C1` (stereo not drawn) (as salt: fumarate) [Example 89 (+)]: 158 to 159 °C.
The same measure, in the same setting: the result for `CN1Cc2ccccc2C(c2ccc3c(cnn3Cc3cccc(C#N)c3)c2)C1.O=C(O)/C=C\C(=O)O` (centres unmarked) reads 83 to 88 °C; that for `CN1Cc2ccccc2C(c2ccc3sccc3c2O)C1` (stereo not drawn) (as salt: fumarate) [Example 88 (−)], 214 to 216 °C.
For `CN1Cc2cc(CN3CCOCC3)ccc2C(c2cc3ccccc3s2)C1` (single isomer, unassigned) (as salt: maleate), the melting point was 80 to 82 °C.
The same measure, in the same setting: next, `Cc1noc(C)c1-c1ccc2c(c1)CN(C)CC2c1ccc2ccccc2c1` (racemic) (as salt: maleate) [Example 142, (±)-7-(3,5-dimethyl-isoxazol-4-yl)-2-methyl-4-napthalen-2-yl-1,2,3,4-tetrahydroisoquinoline, maleate salt]: 88 to 90 °C; `COc1c(O)ccc2c1CN(C)CC2c1ccc2ccccc2c1.O=C(O)/C=C\C(=O)O` (centres unmarked): 85 to 90 °C.
For `CN1Cc2cc(-c3cccnn3)ccc2C(c2ccc3ccccc3c2)C1` (single isomer, unassigned; (+)) (as salt: maleate) [Example 137, (+)-2-methyl-4-napthalen-2-yl-7-pyridazin-3-yl-1,2,3,4-tetrahydroisoquinoline, maleate salt], the melting point lay within 86 to 88 °C.
Still for that read-out and setting: the result for `CN1Cc2cc(-c3cccnn3)ccc2C(c2cc3ccccc3s2)C1` (centres unmarked) (as salt: maleate) reads 99 to 102 °C; that for `CN1Cc2cc(C#N)ccc2C(c2ccc3sccc3c2)C1` (centres unmarked) (as salt: fumarate), 112 to 114 °C; that for `CN1Cc2ccccc2C(c2ccc3sncc3c2)C1.O=C(O)/C=C\C(=O)O` (stereo not drawn) [Example 135 (−)-enantiomer], 127 to 129 °C.
The same measure, in the same setting: the result for `CN1Cc2cc(-c3cccnn3)ccc2C(c2ccc3sccc3c2)C1` (single isomer, unassigned; (+)) (as salt: fumarate) [Example 97, (+)-4-benzo[b]thiophen-5-yl-2-methyl-7-pyridazin-3-yl-1,2,3,4-tetrahydroisoquinoline] reads 122 to 124 °C; that for `CN1Cc2cc(-c3ncccn3)ccc2C(c2ccc3ccccc3c2)C1.O=C(O)/C=C\C(=O)O` (centres unmarked) [Example 140], 84 to 85 °C; that for `COc1c(-c2cccnn2)ccc2c1CN(C)CC2c1ccc2ccccc2c1.O=C(O)/C=C/C(=O)O` (racemic), 182 to 186 °C.

The record behind these values is patent US20060063766A1, “Use of aryl- and heteroaryl-substituted tetrahydroisoquinolines to block reuptake of norepinephrine, dopamine, and serotonin” (priority 2004, published 2006).
